According to patent US8227421B2, “Fluorinated GHRH antagonists” (University of Miami, priority 2009, dated 2012):

Test system: PC-3 human hormone-independent prostate cancer
Experiment: Effect of treatment with GH-RH antagonists on PC-3 human prostate cancer xenografts in nude mice
Format: in vivo
Details: male nude mice, s.c. PC-3 xenografts, 2 ug/day s.c.
Method: Male nude mice were implanted s.c. with 3 mm3 pieces of PC-3 human hormone-independent prostate cancer tissue on both flanks. When tumors reached a volume of approximately 50 mm3, the mice were divided into 14 experimental groups with 8 to 10 animals in each group and received single daily injections for 28 as follows: 1. Control (vehicle solution); 2. P-12211 (2 μg/day s.c.); 3. P-12307 (2 μg/day s.c.); 4. P-12317 (2 μg/day s.c.); 5. P-12408 (2 μg/day s.c.); 6. P-12409 (2 μg/day s.c.); 7. P-12457 (2 μg/day s.c.); 8. P-12473 (2 μg/day s.c.); 9. P-12479 (2 μg/day s.c.); 10. P-12600 (2 μg/day s.c.); 11. P-12601 (2 μg/day s.c.); 12. P-12602 (2 μg/day s.c.); 13. P-12603 (2 μg/day s.c.); and 14. P-12610 (2 μg/day s.c.).
The inhibitory effect of P-12473, P-12479, P-12600, P-12601, P-12602, and P-12610 were statistically significant (p<0.001).
Effect of Treatment with GH-RH Antagonists on PC-3 Human Prostate Cancer Xenografts in Nude Mice

## [PhAc^0-Tyr^1, D-Arg^2, Cpa^6, Ala^8, Har^9, Fpa5^10, His^11, Orn^12, Abu^15, His^20, Orn^21, Nle^27, D-Arg^28, Har^29, Ada^30]hGH-RH(1-30)NH2 [Peptide P-12610]
Single daily injections for 28
  Tumor Growth after 4 weeks (%): 474.98%
Single daily injections for 28, versus control
  Tumor growth inhibition after 4 weeks (%): 77.78%
